Measurements: ChEMBL document CHEMBL1201862, “PubChem BioAssay data set” (2004)
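Method: 48-hour compound exposure of cells in 96-well plates, five concentrations, linear interpolation of endpoints. GI50 is the concentration that inhibits growth by half.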 Active and inactive are the calls of the source. Rule as the data show it: active = GI50 up to about 1.1 µM and inactive = higher.

What was measured:
Test in all cases: NCI tumour cell line growth inhibition, 48 h
Hs-578T = test system: Hs-578T
SN12C = test system: SN12C
SK-OV-3 = test system: SK-OV-3
NCI-H226 = test system: NCI-H226
K562 = test system: K562
SNB-19 = test system: SNB-19
NCI-H460 = test system: NCI-H460
MCF7 = test system: MCF7
LOX IMVI = test system: LOX IMVI
DU-145 = test system: DU-145
HOP-62 = test system: HOP-62
IGROV-1 = test system: IGROV-1
SF-295 = test system: SF-295
A498 = test system: A498
EKVX = test system: EKVX
SK-MEL-2 = test system: SK-MEL-2
U-251 = test system: U-251
UACC-62 = test system: UACC-62
CAKI-1 = test system: CAKI-1
SF-539 = test system: SF-539

SMILES	GI50 (Hs-578T)	GI50 (SN12C)	GI50 (SK-OV-3)	GI50 (NCI-H226)	GI50 (K562)	GI50 (SNB-19)	GI50 (NCI-H460)	GI50 (MCF7)	GI50 (LOX IMVI)	GI50 (DU-145)	GI50 (HOP-62)	GI50 (IGROV-1)	GI50 (SF-295)	GI50 (A498)	GI50 (EKVX)	GI50 (SK-MEL-2)	GI50 (U-251)	GI50 (UACC-62)	GI50 (CAKI-1)	GI50 (SF-539)
CCOC(=O)/C=C(\C)Sc1cc(O)c2ccccc2c1O	58.9 µM (inactive)	29.2 µM (inactive)	34.4 µM (inactive)	25.9 µM (inactive)	5.51 µM (inactive)	14.4 µM (inactive)	19.5 µM (inactive)	13.9 µM (inactive)	5.37 µM (inactive)	9.02 µM (inactive)	20.2 µM (inactive)	12 µM (inactive)	24.6 µM (inactive)	18.5 µM (inactive)	27.9 µM (inactive)	20.9 µM (inactive)	20.3 µM (inactive)	31.1 µM (inactive)	23.5 µM (inactive)	21.5 µM (inactive)
ON[C@H]1C[C@@H](n2cnc3c(NC4CC4)ncnc32)[C@H](O)[C@@H]1O	> 100 µM (inactive)	> 100 µM (inactive)	> 100 µM (inactive)	> 100 µM (inactive)	> 100 µM (inactive)	> 100 µM (inactive)	> 100 µM (inactive)	> 100 µM (inactive)	> 100 µM (inactive)	> 100 µM (inactive)	> 100 µM (inactive)	> 100 µM (inactive)	> 100 µM (inactive)	> 100 µM (inactive)	> 100 µM (inactive)	> 100 µM (inactive)	> 100 µM (inactive)	> 100 µM (inactive)	> 100 µM (inactive)	> 100 µM (inactive)
O=C1/C(=C/c2ccccc2)CN(C(=O)OCc2ccccc2)C/C1=C\c1ccccc1	2.47 µM (inactive)	13.8 µM (inactive)	24.4 µM (inactive)	26.2 µM (inactive)	1.88 µM (inactive)	26.6 µM (inactive)	21.4 µM (inactive)	6.43 µM (inactive)	4.76 µM (inactive)	54.8 µM (inactive)	32.1 µM (inactive)	14.1 µM (inactive)	12.8 µM (inactive)	27.4 µM (inactive)	20.7 µM (inactive)	17.9 µM (inactive)	4.51 µM (inactive)	12.2 µM (inactive)	18.1 µM (inactive)	18.3 µM (inactive)
CN(C)CCCNc1c2ccccc2nc2cccc([N+](=O)[O-])c12	0.00288 µM (active)	0.00102 µM (active)	0.00367 µM (active)	0.0048 µM (active)	< 0.001 µM (active)	0.00173 µM (active)	< 0.001 µM (active)	< 0.001 µM (active)	0.00142 µM (active)	0.00257 µM (active)	0.0011 µM (active)	< 0.001 µM (active)	0.0236 µM (active)	< 0.001 µM (active)	0.00185 µM (active)	< 0.001 µM (active)	0.0103 µM (active)		0.0196 µM (active)	0.00197 µM (active)
COc1ccc(Br)c2c1CC(C(=O)O)CC2 (stereo not drawn)	> 100 µM (inactive)	> 100 µM (inactive)	> 100 µM (inactive)	> 100 µM (inactive)	> 100 µM (inactive)	> 100 µM (inactive)	> 100 µM (inactive)	> 100 µM (inactive)	> 100 µM (inactive)	> 100 µM (inactive)	> 100 µM (inactive)	> 100 µM (inactive)	> 100 µM (inactive)	> 100 µM (inactive)	> 100 µM (inactive)	> 100 µM (inactive)	> 100 µM (inactive)	> 100 µM (inactive)	> 100 µM (inactive)	> 100 µM (inactive)
Cn1/c(=N\N=C2\C=C3CCCCC3(C)CC2)sc2ccccc21 (stereo not drawn)	> 100 µM (inactive)	> 100 µM (inactive)	> 100 µM (inactive)	> 100 µM (inactive)	> 100 µM (inactive)	> 100 µM (inactive)	> 100 µM (inactive)	> 100 µM (inactive)	> 100 µM (inactive)	> 100 µM (inactive)	> 100 µM (inactive)	> 100 µM (inactive)	> 100 µM (inactive)	> 100 µM (inactive)	> 100 µM (inactive)	> 100 µM (inactive)	> 100 µM (inactive)	> 100 µM (inactive)	> 100 µM (inactive)	> 100 µM (inactive)
CC(C)Oc1c(-c2c(OC(C)C)c(=O)c2=O)c(=O)c1=O	> 41.9 µM (inactive)	> 49.2 µM (inactive)	> 100 µM (inactive)	> 78.3 µM (inactive)	> 31.8 µM (inactive)	> 69 µM (inactive)	> 60.7 µM (inactive)	> 20.2 µM (inactive)	> 32.4 µM (inactive)	> 100 µM (inactive)	> 36.1 µM (inactive)	> 31.7 µM (inactive)	> 65 µM (inactive)	> 100 µM (inactive)	> 48.5 µM (inactive)	> 56.9 µM (inactive)	> 36.5 µM (inactive)	> 40 µM (inactive)	> 100 µM (inactive)	> 65.8 µM (inactive)
O=C(/C=C/c1csc(-c2ccccc2)n1)NCc1ccc(C(=O)NCc2ccccc2)cc1	13.3 µM (inactive)	> 100 µM (inactive)	> 100 µM (inactive)	> 100 µM (inactive)	> 100 µM (inactive)	26.5 µM (inactive)	> 100 µM (inactive)	> 100 µM (inactive)	> 100 µM (inactive)	> 100 µM (inactive)	11.3 µM (inactive)	37.2 µM (inactive)	30.4 µM (inactive)	64.9 µM (inactive)	> 100 µM (inactive)	> 100 µM (inactive)	32.9 µM (inactive)	> 100 µM (inactive)	25.2 µM (inactive)	32.3 µM (inactive)
O=C(c1ccccc1)c1c(-c2ccccc2)n(-c2ccccc2)[nH]c(=O)c1=O	21.6 µM (inactive)	69 µM (inactive)	34.2 µM (inactive)	16.5 µM (inactive)	14.8 µM (inactive)	88.3 µM (inactive)	44.7 µM (inactive)	46.7 µM (inactive)	25.6 µM (inactive)	> 100 µM (inactive)	28.8 µM (inactive)	54.5 µM (inactive)	28.2 µM (inactive)	> 100 µM (inactive)	55.5 µM (inactive)	24 µM (inactive)	44.5 µM (inactive)	12.3 µM (inactive)	37.6 µM (inactive)	20.2 µM (inactive)
CC(C)(C)OC(=O)CN1CCNCCN(CC(=O)OC(C)(C)C)CCNCC1	> 100 µM (inactive)	> 100 µM (inactive)	> 100 µM (inactive)	> 100 µM (inactive)	47 µM (inactive)	> 100 µM (inactive)	63.2 µM (inactive)	> 100 µM (inactive)	86.7 µM (inactive)	> 100 µM (inactive)	> 100 µM (inactive)	> 100 µM (inactive)	> 100 µM (inactive)	> 100 µM (inactive)	> 100 µM (inactive)	> 100 µM (inactive)	78.2 µM (inactive)	> 100 µM (inactive)	> 100 µM (inactive)	> 100 µM (inactive)
COC(=O)C1=NN2c3ccccc3CN([C@@H](C)c3ccccc3)C(=O)[C@H]2[C@@H]1C	67.1 µM (inactive)	70.6 µM (inactive)	62.5 µM (inactive)	25.9 µM (inactive)	7.13 µM (inactive)	74.6 µM (inactive)	38.1 µM (inactive)	36.3 µM (inactive)	35.2 µM (inactive)	47.5 µM (inactive)	52.1 µM (inactive)		35 µM (inactive)	> 100 µM (inactive)	27.7 µM (inactive)	35.9 µM (inactive)	42 µM (inactive)	40.6 µM (inactive)	33.7 µM (inactive)	40.5 µM (inactive)
COC1CC(C)(N)C(O)C(C)O1 (stereo not drawn)	> 100 µM (inactive)	> 100 µM (inactive)	> 100 µM (inactive)	> 100 µM (inactive)	> 100 µM (inactive)	> 100 µM (inactive)	> 100 µM (inactive)	> 100 µM (inactive)	> 100 µM (inactive)	> 100 µM (inactive)	> 100 µM (inactive)	> 100 µM (inactive)	> 100 µM (inactive)	> 100 µM (inactive)	> 100 µM (inactive)	> 100 µM (inactive)	> 100 µM (inactive)	> 100 µM (inactive)	> 100 µM (inactive)	> 100 µM (inactive)
CN1CCC/C1=N\C#N	> 100 µM (inactive)	> 100 µM (inactive)	> 100 µM (inactive)	> 100 µM (inactive)	> 100 µM (inactive)	> 100 µM (inactive)	> 100 µM (inactive)	> 100 µM (inactive)	> 100 µM (inactive)	> 100 µM (inactive)	> 100 µM (inactive)	> 100 µM (inactive)	> 100 µM (inactive)	> 100 µM (inactive)	> 100 µM (inactive)	> 100 µM (inactive)	> 100 µM (inactive)	> 100 µM (inactive)	> 100 µM (inactive)	> 100 µM (inactive)
ClCC[N+]12CC[N+](CCCl)(CC1)C2	> 100 µM (inactive)	> 100 µM (inactive)	> 100 µM (inactive)	> 100 µM (inactive)	> 100 µM (inactive)	> 100 µM (inactive)	> 87.7 µM (inactive)	> 100 µM (inactive)	> 100 µM (inactive)	> 100 µM (inactive)	> 100 µM (inactive)	> 100 µM (inactive)	> 100 µM (inactive)	> 100 µM (inactive)	> 100 µM (inactive)	> 100 µM (inactive)	> 100 µM (inactive)	> 100 µM (inactive)	> 75.5 µM (inactive)	> 100 µM (inactive)
